Test results taken from patent publication US20230085307A1, “PYRIDAZINONE COMPOUND AND HERBICIDE” (NISSAN CHEMICAL CORPORATION, priority 2019, published 2023).

What was measured:
lambsquarters [1] = assay: Test Example 5: herbicidal effect by foliage application, plastic box (Table 20, symbol O); assay type: in vivo, lambsquarters (Chenopodium album); settings: foliage application, 320 g/ha, three weeks after application
In short: (§1)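 Sow seeds spot-wise in sterilized diluvial soil; cover with ~1.5 cm soil. Grow 14 days in greenhouse, 25° C. to 30° C. Spray foliage with emulsion diluted to predetermined amount. Rate effect after 3 weeks.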

wild oat [2] = assay: Test Example 5: herbicidal effect by foliage application, plastic box (Table 20, symbol I); assay type: in vivo, wild oat (Avena fatua); settings: foliage application, 320 g/ha, three weeks after application
In short: as §1

windgrass [3] = assay: Test Example 4: herbicidal effect by soil treatment (Table 19, symbol L); assay type: in vivo, windgrass (Apera spica-venti); settings: amount of applied herbicide 320 g/ha
In short: (§2)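 Soil-surface application: an emulsion agent diluted with water to the predetermined dose is sprayed uniformly over seeds lying under roughly 1.5 cm of sterilized diluvial soil. Boxes stay in a greenhouse at 25° C. to 30° C. Three weeks later, each species is graded on previously defined criteria.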

southern crabgrass [4] = assay: Test Example 5: herbicidal effect by foliage application, plastic box (Table 20, symbol F); assay type: in vivo, southern crabgrass (Digitaria ciliaris); settings: foliage application, 320 g/ha, three weeks after application
In short: as §1

barnyard grass [5] = assay: Test Example 5: herbicidal effect by foliage application, plastic box (Table 20, symbol H); assay type: in vivo, barnyard grass (Echinochloa crus-galli); settings: foliage application, 320 g/ha, three weeks after application
In short: as §1

redroot pigweed [6] = assay: Test Example 5: herbicidal effect by foliage application, plastic box (Table 20, symbol N); assay type: in vivo, redroot pigweed (Amaranthus retroflexus); settings: foliage application, 320 g/ha, three weeks after application
In short: as §1

wild oat [7] = assay: Test Example 4: herbicidal effect by soil treatment (Table 19, symbol I); assay type: in vivo, wild oat (Avena fatua); settings: amount of applied herbicide 320 g/ha
In short: as §2

Italian ryegrass [8] = assay: Test Example 5: herbicidal effect by foliage application, plastic box (Table 20, symbol K); assay type: in vivo, Italian ryegrass (Lolium multiflorum); settings: foliage application, 320 g/ha, three weeks after application
In short: as §1

windgrass [9] = assay: Test Example 5: herbicidal effect by foliage application, plastic box (Table 20, symbol L); assay type: in vivo, windgrass (Apera spica-venti); settings: foliage application, 320 g/ha, three weeks after application
In short: as §1

lambsquarters [10] = assay: Test Example 4: herbicidal effect by soil treatment (Table 19, symbol O); assay type: in vivo, lambsquarters (Chenopodium album); settings: amount of applied herbicide 320 g/ha
In short: as §2

velvetleaf [11] = assay: Test Example 5: herbicidal effect by foliage application, plastic box (Table 20, symbol M); assay type: in vivo, velvetleaf (Abutilon theophrasti); settings: foliage application, 320 g/ha, three weeks after application
In short: as §1

persian speedwell [12] = assay: Test Example 5: herbicidal effect by foliage application, plastic box (Table 20, symbol R); assay type: in vivo, Persian speedwell (Veronica persica); settings: foliage application, 320 g/ha, three weeks after application
In short: as §1

chickweed [13] = assay: Test Example 5: herbicidal effect by foliage application, plastic box (Table 20, symbol P); assay type: in vivo, common chickweed (Stellaria media); settings: foliage application, 320 g/ha, three weeks after application
In short: as §1

persian speedwell [14] = assay: Test Example 4: herbicidal effect by soil treatment (Table 19, symbol R); assay type: in vivo, Persian speedwell (Veronica persica); settings: amount of applied herbicide 320 g/ha
In short: as §2

Italian ryegrass [15] = assay: Test Example 4: herbicidal effect by soil treatment (Table 19, symbol K); assay type: in vivo, Italian ryegrass (Lolium multiflorum); settings: amount of applied herbicide 320 g/ha
In short: as §2

barnyard grass [16] = assay: Test Example 3: herbicidal effect by foliage application, Wagner pot (Table 18, symbol H); assay type: in vivo, barnyard grass (Echinochloa crus-galli)
In short: (§3)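 Plants were sown in alluvial soil held under 0.1–0.5 cm standing water and grown 14 days in a greenhouse at 25–30 °C. An emulsifiable formulation, water-diluted to the set dose, was then sprayed onto the foliage, and effects were scored three weeks later using previously defined criteria.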

Chinese sprangletop = assay: Test Example 3: herbicidal effect by foliage application, Wagner pot (Table 18, symbol D); assay type: in vivo, chinese sprangletop (Leptochloa chinensis)
In short: as §3

blackgrass [17] = assay: Test Example 5: herbicidal effect by foliage application, plastic box (Table 20, symbol J); assay type: in vivo, blackgrass (Alopecurus myosuroides); settings: foliage application, 320 g/ha, three weeks after application
In short: as §1

southern crabgrass [18] = assay: Test Example 4: herbicidal effect by soil treatment (Table 19, symbol F); assay type: in vivo, southern crabgrass (Digitaria ciliaris); settings: amount of applied herbicide 320 g/ha
In short: as §2

rice flat sedge = assay: Test Example 3: herbicidal effect by foliage application, Wagner pot (Table 18, symbol E); assay type: in vivo, rice flat sedge (Cyperus iria)
In short: as §3

green foxtail [19] = assay: Test Example 5: herbicidal effect by foliage application, plastic box (Table 20, symbol G); assay type: in vivo, green foxtail (Setaria viridis); settings: foliage application, 320 g/ha, three weeks after application
In short: as §1

blackgrass [20] = assay: Test Example 4: herbicidal effect by soil treatment (Table 19, symbol J); assay type: in vivo, blackgrass (Alopecurus myosuroides); settings: amount of applied herbicide 320 g/ha
In short: as §2

chickweed [21] = assay: Test Example 4: herbicidal effect by soil treatment (Table 19, symbol P); assay type: in vivo, common chickweed (Stellaria media); settings: amount of applied herbicide 320 g/ha
In short: as §2

velvetleaf [22] = assay: Test Example 4: herbicidal effect by soil treatment (Table 19, symbol M); assay type: in vivo, velvetleaf (Abutilon theophrasti); settings: amount of applied herbicide 320 g/ha
In short: as §2

green foxtail [23] = assay: Test Example 4: herbicidal effect by soil treatment (Table 19, symbol G); assay type: in vivo, green foxtail (Setaria viridis); settings: amount of applied herbicide 320 g/ha
In short: as §2

false cleavers = assay: Test Example 4: herbicidal effect by soil treatment (Table 19, symbol Q); assay type: in vivo, false cleavers (Galium spurium); settings: amount of applied herbicide 320 g/ha
In short: as §2

redroot pigweed [24] = assay: Test Example 4: herbicidal effect by soil treatment (Table 19, symbol N); assay type: in vivo, redroot pigweed (Amaranthus retroflexus); settings: amount of applied herbicide 320 g/ha
In short: as §2

barnyard grass [25] = assay: Test Example 4: herbicidal effect by soil treatment (Table 19, symbol H); assay type: in vivo, barnyard grass (Echinochloa crus-galli); settings: amount of applied herbicide 320 g/ha
In short: as §2

[26] = amount of applied herbicide 320 g/ha

Q: For CC(=O)CSc1ccc(-c2sc3ccc(F)cc3c2-c2c(O)c(C)nn(C)c2=O)cc1 [2-424], which “O: lambsquarters, herbicidal effect grade” value (lambsquarters [1]) is on record?
A: 3 (Herbicidal rate of 40% or more and less than 70%)

Q: And the “I: wild oat, herbicidal effect grade” value (wild oat [2])?
A: 4 (Herbicidal rate of 70% or more and less than 90%)

Q: What about the “herbicidal effect, L: windgrass” value (windgrass [3]) of the same compound?
A: 0 (Herbicidal rate of 5% or less (almost no effect))

Q: What about the “F: southern crabgrass, herbicidal effect grade” value (southern crabgrass [4]) of the same compound?
A: 3 (Herbicidal rate of 40% or more and less than 70%)

Q: And the “H: barnyard grass, herbicidal effect grade” value (barnyard grass [5])?
A: 5 (Herbicidal rate of 90% or more (almost completely withered))

Q: What about the “N: redroot pigweed, herbicidal effect grade” value (redroot pigweed [6]) of the same compound?
A: 5 (Herbicidal rate of 90% or more (almost completely withered))

Q: What about the “herbicidal effect, I: wild oat” value (wild oat [7]) of the same compound?
A: 0 (Herbicidal rate of 5% or less (almost no effect))

Q: What about the “K: Italian ryegrass, herbicidal effect grade” value (Italian ryegrass [8]) of the same compound?
A: 1 (Herbicidal rate of 5% or more and less than 20%)

Q: And the “L: windgrass, herbicidal effect grade” value (windgrass [9])?
A: 4 (Herbicidal rate of 70% or more and less than 90%)

Q: And the “herbicidal effect, O: lambsquarters” value (lambsquarters [10])?
A: 3 (Herbicidal rate of 40% or more and less than 70%)

Q: What about the “M: velvetleaf, herbicidal effect grade” value (velvetleaf [11]) of the same compound?
A: 3 (Herbicidal rate of 40% or more and less than 70%)

Q: What about the “R: persian speedwell, herbicidal effect grade” value (persian speedwell [12]) of the same compound?
A: 4 (Herbicidal rate of 70% or more and less than 90%)

Q: And the “P: chickweed, herbicidal effect grade” value (chickweed [13])?
A: 5 (Herbicidal rate of 90% or more (almost completely withered))

Q: And the “herbicidal effect, R: persian speedwell” value (persian speedwell [14])?
A: 0 (Herbicidal rate of 5% or less (almost no effect))

Q: What about the “herbicidal effect, K: Italian ryegrass” value (Italian ryegrass [15]) of the same compound?
A: 0 (Herbicidal rate of 5% or less (almost no effect))

Q: And the “herbicidal effect on H: barnyard grass” value (barnyard grass [16]; [26])?
A: 5 (Herbicidal rate of 90% or more (almost completely withered))

Q: And the “herbicidal effect on D: Chinese sprangletop” value (Chinese sprangletop; [26])?
A: 3 (Herbicidal rate of 40% or more and less than 70%)

Q: What about the “J: blackgrass, herbicidal effect grade” value (blackgrass [17]) of the same compound?
A: 3 (Herbicidal rate of 40% or more and less than 70%)

Q: And the “herbicidal effect, F: southern crabgrass” value (southern crabgrass [18])?
A: 0 (Herbicidal rate of 5% or less (almost no effect))

Q: And the “herbicidal effect on E: rice flat sedge” value (rice flat sedge; [26])?
A: 4 (Herbicidal rate of 70% or more and less than 90%)

Q: What about the “G: green foxtail, herbicidal effect grade” value (green foxtail [19]) of the same compound?
A: 3 (Herbicidal rate of 40% or more and less than 70%)

Q: What about the “herbicidal effect, J: blackgrass” value (blackgrass [20]) of the same compound?
A: 0 (Herbicidal rate of 5% or less (almost no effect))

Q: And the “herbicidal effect, P: chickweed” value (chickweed [21])?
A: 0 (Herbicidal rate of 5% or less (almost no effect))

Q: And the “herbicidal effect, M: velvetleaf” value (velvetleaf [22])?
A: 2 (Herbicidal rate of 20% or more and less than 40%)

Q: What about the “herbicidal effect, G: green foxtail” value (green foxtail [23]) of the same compound?
A: 0 (Herbicidal rate of 5% or less (almost no effect))

Q: What about the “herbicidal effect, Q: false cleavers” value (false cleavers) of the same compound?
A: 0 (Herbicidal rate of 5% or less (almost no effect))

Q: What about the “herbicidal effect, N: redroot pigweed” value (redroot pigweed [24]) of the same compound?
A: 4 (Herbicidal rate of 70% or more and less than 90%)

Q: And the “herbicidal effect, H: barnyard grass” value (barnyard grass [25])?
A: 0 (Herbicidal rate of 5% or less (almost no effect))

Q: Which results are given for Cc1nn(C)c(=O)c(-c2c(-c3ccc(OC(F)(F)F)cc3)sc3cc(F)ccc23)c1O [3-143]?
A: O: lambsquarters, herbicidal effect grade (lambsquarters [1]): 5 (Herbicidal rate of 90% or more (almost completely withered)); I: wild oat, herbicidal effect grade (wild oat [2]): 0 (Herbicidal rate of 5% or less (almost no effect)); Herbicidal effect by soil treatment, L: windgrass (windgrass [3]): 4 (Herbicidal rate of 70% or more and less than 90%); F: southern crabgrass, herbicidal effect grade (southern crabgrass [4]): 1 (Herbicidal rate of 5% or more and less than 20%); H: barnyard grass, herbicidal effect grade (barnyard grass [5]): 4 (Herbicidal rate of 70% or more and less than 90%); N: redroot pigweed, herbicidal effect grade (redroot pigweed [6]): 5 (Herbicidal rate of 90% or more (almost completely withered)); Herbicidal effect by soil treatment, I: wild oat (wild oat [7]): 0 (Herbicidal rate of 5% or less (almost no effect)); K: Italian ryegrass, herbicidal effect grade (Italian ryegrass [8]): 5 (Herbicidal rate of 90% or more (almost completely withered)); L: windgrass, herbicidal effect grade (windgrass [9]): 5 (Herbicidal rate of 90% or more (almost completely withered)); Herbicidal effect by soil treatment, O: lambsquarters (lambsquarters [10]): 4 (Herbicidal rate of 70% or more and less than 90%); M: velvetleaf, herbicidal effect grade (velvetleaf [11]): 5 (Herbicidal rate of 90% or more (almost completely withered)); R: persian speedwell, herbicidal effect grade (persian speedwell [12]): 5 (Herbicidal rate of 90% or more (almost completely withered)); P: chickweed, herbicidal effect grade (chickweed [13]): 5 (Herbicidal rate of 90% or more (almost completely withered)); Herbicidal effect by soil treatment, R: persian speedwell (persian speedwell [14]): 3 (Herbicidal rate of 40% or more and less than 70%); Herbicidal effect by soil treatment, K: Italian ryegrass (Italian ryegrass [15]): 0 (Herbicidal rate of 5% or less (almost no effect)); herbicidal effect on barnyard grass (H) (barnyard grass [16]; 320 g/ha): 5 (Herbicidal rate of 90% or more (almost completely withered)); herbicidal effect on Chinese sprangletop (D) (Chinese sprangletop; 320 g/ha): 4 (Herbicidal rate of 70% or more and less than 90%); J: blackgrass, herbicidal effect grade (blackgrass [17]): 5 (Herbicidal rate of 90% or more (almost completely withered)); Herbicidal effect by soil treatment, F: southern crabgrass (southern crabgrass [18]): 0 (Herbicidal rate of 5% or less (almost no effect)); herbicidal effect on rice flat sedge (E) (rice flat sedge; 320 g/ha): 5 (Herbicidal rate of 90% or more (almost completely withered)); G: green foxtail, herbicidal effect grade (green foxtail [19]): 4 (Herbicidal rate of 70% or more and less than 90%); Herbicidal effect by soil treatment, J: blackgrass (blackgrass [20]): 0 (Herbicidal rate of 5% or less (almost no effect)); Herbicidal effect by soil treatment, P: chickweed (chickweed [21]): 0 (Herbicidal rate of 5% or less (almost no effect)); Herbicidal effect by soil treatment, M: velvetleaf (velvetleaf [22]): 0 (Herbicidal rate of 5% or less (almost no effect)); Herbicidal effect by soil treatment, G: green foxtail (green foxtail [23]): 2 (Herbicidal rate of 20% or more and less than 40%); Herbicidal effect by soil treatment, Q: false cleavers (false cleavers): 3 (Herbicidal rate of 40% or more and less than 70%); Herbicidal effect by soil treatment, N: redroot pigweed (redroot pigweed [24]): 4 (Herbicidal rate of 70% or more and less than 90%); Herbicidal effect by soil treatment, H: barnyard grass (barnyard grass [25]): 0 (Herbicidal rate of 5% or less (almost no effect))
